Experiment in all cases: growth of human tumour cells (NCI), 48 h
The subject of test [1] is A549 NSCLC.
Test [2] relates to HL-60(TB) leukemia.
Test [3] deals with M14 melanoma.
The subject of test [4] is NCI-H226 lung.
Test [5] has as its system OVCAR-3 ovarian.
Test [6] has as its system OVCAR-5 ovarian.
The subject of test [7] is SK-MEL-5 melanoma.
Test [8] relates to SK-OV-3 ovarian.
Test [9] has as its system U251 CNS.
Test [10] has as its system UO-31 renal.

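These data come from cells grown in 96-well plates and exposed to compound for 48 hours at five concentrations. GI50: concentration for 50% inhibition of growth. TGI: total growth inhibition.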

Experimental findings from PubChem BioAssay (NCI) are described below.

In the case of `OCc1ccc(-c2csc(-c3ccc(CO)o3)c2)o1`, the GI50 in test [1] is 15.3 µM; in test [2], 22.9 µM; in [3] it was 30.6 µM; in test [4], 0.165 µM; in test [5], 5.86 µM; in test [6], 0.199 µM. For the same compound, the GI50 in [7] was 17.5 µM; in [8] it was 26.1 µM; in test [9], 29.7 µM; in [10] it was 49.7 µM. Moreover, the TGI in [1] is 64.9 µM; in test [2], greater than 100 µM; in test [3] it was greater than 100 µM; in [4] it was 0.454 µM; in [5], greater than 100 µM; in test [6], 1.52 µM. For the same compound, the TGI in test [7] is 41.5 µM; in test [8] it was greater than 100 µM; in [9], greater than 100 µM; in test [10], greater than 100 µM.
In the case of `N#CC1C[C@@H]2CC3(CCC2CN1C(=O)c1ccccc1)OCCO3` (stereo not given in full), the TGI in test [1], in [2], in test [3], in test [4], in [5] and in test [6] was greater than 100 µM in each case. The TGI in test [7], in test [8], in test [9] and in [10] was greater than 100 µM in each case. Besides, in test [4], the GI50 is greater than 100 µM.
For `NC(=O)c1cccc2c(N[C@H](CN3CCC3)c3ccc(Cl)c(C(F)(F)F)c3)ncnc12`, the GI50 was 1.47 µM in test [1]; 2.13 µM in test [2]; 1.47 µM in test [3]; 1.99 µM in test [4]; 3.3 µM in [5]; 1.77 µM in test [6]. Besides, the GI50 in test [7] is 1.7 µM; in test [8], 0.493 µM; in test [9] it was 0.548 µM; in test [10], 0.306 µM. Besides, the TGI in [1] came to 12.4 µM; in test [2], 5.64 µM; in test [3], 3.69 µM; in [4], 16.2 µM; in [5], 16.2 µM; in [6], 13.5 µM. The TGI in [7] is 3.27 µM; in [8] it was 4.3 µM; in test [9] it was 12.1 µM; in [10], 4.91 µM.
For the compound `O=C([O][Hg][c]1ccccc1)c1ccccc1`, the GI50 is 12.7 µM in test [1]; 0.325 µM in test [2]; 1.36 µM in [3]; 2.41 µM in test [4]; 0.298 µM in [5]; 2.48 µM in test [6]. Moreover, the GI50 is 1.53 µM in [7], 4.03 µM in [8], 1.38 µM in test [9] and 1.47 µM in [10]. For the same compound, the TGI in test [1] worked out at 40 µM; in test [2], 1.86 µM; in test [3] it was 2.94 µM; in test [4], 6.18 µM; in test [5], 0.843 µM; in test [6], 5.56 µM. Besides, the TGI in test [7] is 3.06 µM; in [8] it was 11.9 µM; in test [9] it was 2.8 µM; in test [10] it was 2.89 µM.
`O=C(c1ccccc1)C(Cl)C(Cl)c1ccccc1` (stereo not given): the GI50 in [1] is 18.3 µM; in test [2], 3.04 µM; in test [3] it was 2.12 µM; in [4], 2.17 µM; in [5], 2.03 µM; in test [6], 5.48 µM. The GI50 in test [7] was 2.93 µM; in [8], 16.8 µM; in [9], 3.97 µM; in [10], 1.62 µM. The TGI in [1] was determined as 34.2 µM; in test [2], 8.58 µM; in [3], 4.79 µM; in [4], 5.35 µM; in [5], 4.57 µM; in test [6], 20.9 µM. Besides, the TGI in test [7] was determined as 10.7 µM; in [8], 30.5 µM; in test [9], 14.3 µM; in [10], 3.45 µM.
For `C/C(=N\NC(=S)N1CCN(c2ccccn2)CC1)c1ccccn1`, the GI50 was 0.0464 µM in test [1]; 0.0416 µM in test [2]; 0.0852 µM in test [3]; 0.236 µM in test [4]; 0.159 µM in [6]; 0.0688 µM in [7]. Also, the GI50 was 0.198 µM in [8], less than 0.0161 µM in [9] and 0.141 µM in [10]. The TGI in test [1] came to 13.7 µM; in test [2], 0.0104 µM; in test [3], 8.06 µM; in [4], 7.33 µM; in test [5], 14.2 µM; in test [6] it was 13.4 µM. Also, the TGI was 13.5 µM in [7], 16.2 µM in test [8], 12.9 µM in test [9] and 6.8 µM in test [10].
